The source of these data is BindingDB's records for doi:10.1016/j.ejmech.2018.06.047 (University of Oulu, 2018).

The nature of the experiment: Inhibition of ARTD10 (unknown origin)-induced cell death expressed in human HeLa cells after 10 days by methylene blue staining based colony formation assay.

`NC(=O)c1ccc(OCc2ccccc2F)cc1`: the concentration for half-maximal inhibition (IC50) (in general, the concentration needed to halve the response being measured) stood at 2000 nM. With `NC(=O)c1ccc(Oc2ccc(C=O)cc2)cc1` the figure was 1000 nM.
